Measurements published in ChEMBL document CHEMBL1201862, “PubChem BioAssay data set” (2004).
Activity calls are given as the source filed them.

What was measured:
Cytochrome P450 2C9 [1] = target: T1, Cytochrome P450 2C9 (Homo sapiens, UniProt P11712); details: Potency
Cytochrome P450 3A4 [2] = target: T2, Cytochrome P450 3A4 (Homo sapiens, UniProt P08684); details: Potency
Saccharomyces cerevisiae = assay: S. cerevisiae Caspase-1/ASC signal blockers IC50, NALP1 inhibitor project selectivity test (AID 488863); type: functional, organism-based
Prothrombin = Prothrombin (Homo sapiens, UniProt P00734); assay: Thrombin 1536 HTS Dose Response Confirmation. [Related pubchem assays: 1046 (Thrombin 1536 HTS; hits were confirmed in this assay)]; type: functional
[3] = target: NACHT, LRR and PYD domains-containing protein 1 (Homo sapiens, UniProt Q9C000); assay: NALP1 inhibitors in yeast, dose response, luminescent (AID 488860); type: functional
Cytochrome P450 3A4 [4] = target: T2, Cytochrome P450 3A4
Cytochrome P450 2C9 [5] = target: T1, Cytochrome P450 2C9
Trypsin = Trypsin (Sus scrofa, UniProt P00761); assay: trypsin protease activity blockade – biochemical, quenched peptide fluorescence, cherry-pick, selectivity assay for Rce1 protease inhibitor project, dose response (AID 488789)
CAAX prenyl protease 2 [6] = target: T3, CAAX prenyl protease 2 (Homo sapiens, UniProt Q9Y256); assay: inhibition of Ras-converting CAAX protease Rce1 – biochemical, yeast membranes, quenched-peptide fluorescence, cherry-pick, dose response (AID 588849)
T3 sequence (Q9Y256 whole entry): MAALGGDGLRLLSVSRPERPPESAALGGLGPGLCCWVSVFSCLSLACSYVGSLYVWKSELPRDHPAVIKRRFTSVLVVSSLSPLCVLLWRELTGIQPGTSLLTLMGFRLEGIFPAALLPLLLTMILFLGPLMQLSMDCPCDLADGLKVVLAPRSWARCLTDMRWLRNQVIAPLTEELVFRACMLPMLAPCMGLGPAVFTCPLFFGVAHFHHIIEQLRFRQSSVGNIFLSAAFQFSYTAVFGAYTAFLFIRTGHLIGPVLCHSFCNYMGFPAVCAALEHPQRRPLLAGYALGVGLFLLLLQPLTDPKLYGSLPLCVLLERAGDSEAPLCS

CAAX prenyl protease 2 [7] = target: CAAX prenyl protease 2 (Saccharomyces cerevisiae S288c, UniProt Q03530); type: biochemical
Streptococcus = assay: GAS UMAA2166 growth inhibition – luminescence, BacTiterGlo, counter-screen for streptokinase expression inhibitor project, dose response (AID 1915); type: functional, organism-based;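 further: potency for reduction of bacterial viability or growth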
Streptokinase A = target: T4, Streptokinase A (Streptococcus pyogenes serotype M1, UniProt P10520); assay: viability-normalized secreted streptokinase activity reduction – plasminogen activation absorbance, OD405, dose response (AID 1914); type: functional, Streptococcus pyogenes M1 GAS;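 further: secreted streptokinase activity via plasminogen activation per viability signal from cell pellet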
T4 sequence (P10520 whole entry): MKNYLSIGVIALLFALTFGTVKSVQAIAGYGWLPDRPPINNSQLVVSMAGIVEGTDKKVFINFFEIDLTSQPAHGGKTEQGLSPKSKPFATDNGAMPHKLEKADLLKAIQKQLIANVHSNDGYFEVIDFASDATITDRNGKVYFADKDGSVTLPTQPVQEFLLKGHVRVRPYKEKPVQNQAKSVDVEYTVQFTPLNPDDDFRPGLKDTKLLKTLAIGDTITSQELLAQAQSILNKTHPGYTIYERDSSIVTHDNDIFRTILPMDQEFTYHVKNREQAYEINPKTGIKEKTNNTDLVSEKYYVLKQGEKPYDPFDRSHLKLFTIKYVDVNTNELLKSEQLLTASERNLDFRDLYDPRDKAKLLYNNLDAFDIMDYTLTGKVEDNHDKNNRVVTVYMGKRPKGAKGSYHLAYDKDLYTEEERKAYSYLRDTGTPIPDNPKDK

[8] = test system: Streptococcus sp. 'group A'; assay: Streptococcus pyogenes SK(-)GAS viability under kanamycin – luminescence, BacTiterGlo, confirmation, counter-screen for streptokinase expression inhibitor project, dose response (AID 1900); type: functional, organism-based
[9] = target: Voltage-dependent T-type calcium channel subunit alpha-1H (Homo sapiens, UniProt O95180); type: functional;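 further: channel activity triggered by adding a high calcium stimulation buffer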
Cytochrome P450 2C9 [10] = target: T1, Cytochrome P450 2C9; remark: listed apart in the source
Cytochrome P450 1A2 = target: T5, Cytochrome P450 1A2 (Homo sapiens, UniProt P05177);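 further: PubChem cytochrome P450 panel assay, CYP1A2 panel member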
T5 sequence (P05177 whole entry): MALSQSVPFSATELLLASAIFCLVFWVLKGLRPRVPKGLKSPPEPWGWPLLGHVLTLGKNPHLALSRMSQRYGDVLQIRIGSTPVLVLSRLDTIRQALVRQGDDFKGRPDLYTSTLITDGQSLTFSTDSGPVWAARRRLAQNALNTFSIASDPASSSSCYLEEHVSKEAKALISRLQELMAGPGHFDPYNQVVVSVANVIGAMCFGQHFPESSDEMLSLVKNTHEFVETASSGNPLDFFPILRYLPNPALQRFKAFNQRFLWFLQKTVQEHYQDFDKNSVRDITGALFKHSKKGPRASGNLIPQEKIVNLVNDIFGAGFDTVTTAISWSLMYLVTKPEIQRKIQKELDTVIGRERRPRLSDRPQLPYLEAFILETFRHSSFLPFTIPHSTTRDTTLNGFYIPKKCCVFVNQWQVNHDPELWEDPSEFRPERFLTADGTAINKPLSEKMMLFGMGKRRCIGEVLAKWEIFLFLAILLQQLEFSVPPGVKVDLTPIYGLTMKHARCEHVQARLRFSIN

Cytochrome P450 3A4 [11] = target: T2, Cytochrome P450 3A4; remark: listed apart in the source

T1 sequence (P11712 whole entry): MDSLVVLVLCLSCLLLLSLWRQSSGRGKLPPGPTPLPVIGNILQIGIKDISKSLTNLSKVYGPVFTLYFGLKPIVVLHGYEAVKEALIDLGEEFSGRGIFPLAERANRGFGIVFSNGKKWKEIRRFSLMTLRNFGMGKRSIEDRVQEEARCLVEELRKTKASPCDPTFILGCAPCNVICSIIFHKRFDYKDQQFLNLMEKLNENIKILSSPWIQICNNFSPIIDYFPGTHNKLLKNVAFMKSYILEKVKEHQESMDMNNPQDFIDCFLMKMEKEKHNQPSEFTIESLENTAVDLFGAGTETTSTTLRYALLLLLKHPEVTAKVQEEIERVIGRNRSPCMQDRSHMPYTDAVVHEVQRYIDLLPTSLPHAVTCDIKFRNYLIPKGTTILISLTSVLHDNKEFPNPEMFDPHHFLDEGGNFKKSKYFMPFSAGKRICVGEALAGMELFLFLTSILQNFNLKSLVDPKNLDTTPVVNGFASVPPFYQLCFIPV
T2 sequence (P08684 whole entry): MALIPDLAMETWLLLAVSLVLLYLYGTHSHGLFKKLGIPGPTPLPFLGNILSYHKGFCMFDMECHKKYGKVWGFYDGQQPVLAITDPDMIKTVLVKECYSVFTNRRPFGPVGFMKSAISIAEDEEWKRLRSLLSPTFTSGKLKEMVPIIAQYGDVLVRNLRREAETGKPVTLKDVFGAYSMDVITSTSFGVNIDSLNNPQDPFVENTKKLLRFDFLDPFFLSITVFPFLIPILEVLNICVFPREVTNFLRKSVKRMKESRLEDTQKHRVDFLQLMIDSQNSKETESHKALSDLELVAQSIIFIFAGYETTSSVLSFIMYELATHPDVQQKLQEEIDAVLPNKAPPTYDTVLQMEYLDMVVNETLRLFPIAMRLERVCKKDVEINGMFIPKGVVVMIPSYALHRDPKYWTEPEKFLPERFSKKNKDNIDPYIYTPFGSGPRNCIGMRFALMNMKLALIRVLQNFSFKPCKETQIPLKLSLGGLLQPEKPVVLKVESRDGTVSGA
Sequence of Trypsin (P00761 whole entry): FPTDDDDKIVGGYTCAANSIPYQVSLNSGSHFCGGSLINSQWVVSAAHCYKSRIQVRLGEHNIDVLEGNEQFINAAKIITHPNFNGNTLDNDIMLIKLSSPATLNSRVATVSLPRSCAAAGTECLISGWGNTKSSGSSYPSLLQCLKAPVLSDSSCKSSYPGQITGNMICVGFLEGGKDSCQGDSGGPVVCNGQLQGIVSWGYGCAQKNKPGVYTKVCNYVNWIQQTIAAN
Sequence of CAAX prenyl protease 2 (Saccharomyces cerevisiae S288c, UniProt Q03530) (Q03530 whole entry): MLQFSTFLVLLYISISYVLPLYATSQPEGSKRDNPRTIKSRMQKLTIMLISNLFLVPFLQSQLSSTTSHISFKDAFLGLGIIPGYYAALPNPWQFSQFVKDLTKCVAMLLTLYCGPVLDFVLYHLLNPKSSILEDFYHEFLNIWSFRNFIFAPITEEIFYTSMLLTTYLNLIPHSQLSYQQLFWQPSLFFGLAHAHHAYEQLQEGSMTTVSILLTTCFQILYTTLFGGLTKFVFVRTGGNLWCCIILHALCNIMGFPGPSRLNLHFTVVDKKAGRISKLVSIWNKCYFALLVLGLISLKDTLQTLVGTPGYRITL
Sequence of Voltage-dependent T-type calcium channel subunit alpha-1H (O95180 whole entry): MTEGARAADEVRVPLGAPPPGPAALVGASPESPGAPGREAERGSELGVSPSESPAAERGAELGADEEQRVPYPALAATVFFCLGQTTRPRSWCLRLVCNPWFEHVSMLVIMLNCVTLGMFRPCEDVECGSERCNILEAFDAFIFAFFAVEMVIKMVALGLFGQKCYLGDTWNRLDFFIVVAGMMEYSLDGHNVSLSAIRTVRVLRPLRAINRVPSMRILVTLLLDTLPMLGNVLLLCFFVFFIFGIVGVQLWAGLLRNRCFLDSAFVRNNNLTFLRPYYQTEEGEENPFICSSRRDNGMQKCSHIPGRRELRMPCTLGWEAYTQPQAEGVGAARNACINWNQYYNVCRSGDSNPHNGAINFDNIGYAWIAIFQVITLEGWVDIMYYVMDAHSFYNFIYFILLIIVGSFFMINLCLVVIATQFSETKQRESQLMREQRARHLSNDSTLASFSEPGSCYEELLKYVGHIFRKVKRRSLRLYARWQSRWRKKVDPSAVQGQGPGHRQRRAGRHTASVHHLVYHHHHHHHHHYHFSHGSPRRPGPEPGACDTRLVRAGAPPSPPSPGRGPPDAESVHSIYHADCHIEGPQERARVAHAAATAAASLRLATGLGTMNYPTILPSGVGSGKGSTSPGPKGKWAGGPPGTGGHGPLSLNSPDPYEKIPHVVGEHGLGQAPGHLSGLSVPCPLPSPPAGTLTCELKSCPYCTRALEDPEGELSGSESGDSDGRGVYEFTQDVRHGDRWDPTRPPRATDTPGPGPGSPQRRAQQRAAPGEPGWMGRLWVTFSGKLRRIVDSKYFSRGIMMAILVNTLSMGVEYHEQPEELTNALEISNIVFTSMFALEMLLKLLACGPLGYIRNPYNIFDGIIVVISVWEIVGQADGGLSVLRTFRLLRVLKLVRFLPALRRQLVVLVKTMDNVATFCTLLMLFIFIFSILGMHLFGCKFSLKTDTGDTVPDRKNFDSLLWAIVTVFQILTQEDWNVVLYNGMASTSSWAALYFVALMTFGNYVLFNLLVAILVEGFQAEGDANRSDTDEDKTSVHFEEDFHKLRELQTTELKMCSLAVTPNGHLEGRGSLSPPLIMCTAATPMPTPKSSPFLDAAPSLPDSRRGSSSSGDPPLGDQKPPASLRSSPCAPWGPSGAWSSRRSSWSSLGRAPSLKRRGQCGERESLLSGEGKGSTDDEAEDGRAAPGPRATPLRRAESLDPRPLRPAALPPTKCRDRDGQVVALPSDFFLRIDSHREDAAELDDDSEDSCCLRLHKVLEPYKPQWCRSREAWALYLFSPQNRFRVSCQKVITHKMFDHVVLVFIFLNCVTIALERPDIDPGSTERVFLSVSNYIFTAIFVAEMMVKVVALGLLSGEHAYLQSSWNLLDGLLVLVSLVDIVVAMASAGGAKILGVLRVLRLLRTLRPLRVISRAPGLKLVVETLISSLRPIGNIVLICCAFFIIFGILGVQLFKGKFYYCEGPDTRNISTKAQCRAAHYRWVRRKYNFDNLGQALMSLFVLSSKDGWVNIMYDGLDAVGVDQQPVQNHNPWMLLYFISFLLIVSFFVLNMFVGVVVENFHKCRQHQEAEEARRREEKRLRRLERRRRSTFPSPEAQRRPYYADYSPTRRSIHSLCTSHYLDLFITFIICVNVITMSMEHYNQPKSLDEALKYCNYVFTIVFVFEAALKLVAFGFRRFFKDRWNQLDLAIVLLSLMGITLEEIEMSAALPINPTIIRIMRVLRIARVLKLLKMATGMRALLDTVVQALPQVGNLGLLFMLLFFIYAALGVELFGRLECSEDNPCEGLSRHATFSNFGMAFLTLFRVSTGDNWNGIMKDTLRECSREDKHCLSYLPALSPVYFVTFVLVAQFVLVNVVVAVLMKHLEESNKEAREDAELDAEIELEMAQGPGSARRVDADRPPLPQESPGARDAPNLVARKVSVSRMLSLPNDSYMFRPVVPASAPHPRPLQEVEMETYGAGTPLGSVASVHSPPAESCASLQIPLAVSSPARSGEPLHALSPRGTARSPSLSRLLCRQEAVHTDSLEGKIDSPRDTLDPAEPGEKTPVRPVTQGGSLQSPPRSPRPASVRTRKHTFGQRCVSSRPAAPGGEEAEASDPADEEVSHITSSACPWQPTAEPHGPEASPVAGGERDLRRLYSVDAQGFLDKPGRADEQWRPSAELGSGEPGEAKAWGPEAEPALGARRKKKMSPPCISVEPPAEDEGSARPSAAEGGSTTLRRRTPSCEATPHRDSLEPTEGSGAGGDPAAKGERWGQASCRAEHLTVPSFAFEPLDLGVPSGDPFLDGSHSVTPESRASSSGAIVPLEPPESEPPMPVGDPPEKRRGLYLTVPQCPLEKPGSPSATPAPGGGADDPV

COc1cc2c(cc1O)-c1c(O)c(OC)cc3c1[C@H](C2)N(C)CC3
AC50 (Cytochrome P450 2C9 [1]): 31.6 µM (inconclusive) | AC50 (Cytochrome P450 3A4 [2]): 20 µM (inconclusive)

Cc1ccc2c(c1)c1c3n2CCCNC3CCC1 (stereo not drawn)
IC50 (Saccharomyces cerevisiae): 87.6 µM (active) | IC50 (Prothrombin): > 50 µM (not active) | IC50 [3]: > 100 µM (inactive)

CC(=O)[C@@H]1CC[C@@H]2[C@@H]3CCC4=CC(=O)CC[C@@]4(C)[C@H]3CC[C@]21C
AC50 (Cytochrome P450 2C9 [1]): 39.8 µM (inconclusive) | AC50 (Cytochrome P450 3A4 [4]): inconclusive | AC50 (Cytochrome P450 2C9 [5]): 15.8 µM (inconclusive)

COc1cc2nc3c(O)n(CCN4CCOCC4)cnc-3c2cc1OC
AC50 (Trypsin): 16.1 µM (active) | AC50 (CAAX prenyl protease 2 [6]): 9.95 µM (active)

CCCCNc1c(-c2ccc(SC(C)CC)c(OC)c2)nc2ccc(C)cn12 (stereo not drawn)
AC50 (Trypsin): 2.63 µM (active) | AC50 (CAAX prenyl protease 2 [7]): 39.7 µM (active) | EC50 (Streptococcus): 10.2 µM (active) | EC50 (Streptokinase A): 8.79 µM (active) | AC50 (CAAX prenyl protease 2 [6]): 32.5 µM (active) | EC50 [8]: 3.09 µM (active)

O=S(=O)(Nc1ccc(S(=O)(=O)N2CCCCC2)cc1)c1ccc(Br)s1
EC50 [9]: 3.58 µM (active)

c1coc(-c2ccnc3ncnn23)c1
AC50 (CAAX prenyl protease 2 [7]): 24.5 µM (active) | AC50 (CAAX prenyl protease 2 [6]): 3.88 µM (active)

CN(C)c1ccc(/C=C2\SC(=S)N(Nc3ncc(C(F)(F)F)cc3Cl)C2=O)cc1
AC50 (Cytochrome P450 2C9 [10]): inconclusive | AC50 (Cytochrome P450 1A2): 5.01 µM (inconclusive) | EC50 [9]: 2.86 µM (active) | AC50 (Cytochrome P450 3A4 [11]): 14.1 µM (inconclusive)
